Values of other authors, collected in US20170128486A1, “CONSUMABLE COMPOSITIONS AND USES THEREOF FOR ALLEVIATING UNDESIRABLE PHYSIOLOGICAL EFFECTS SYSTEMS” (ImmunoL0G1C R&D Inc., priority 2015, published 2017).
Converted amounts (≈) assume the structure as drawn.

Structure (SMILES)	solubility in water	solubility (in water) [µg/mL]
N[C@@H](Cc1c[nH]c2ccccc12)C(=O)O [L-tryptophan]	poorly soluble in water	–
N[C@@H](Cc1c[nH]c2ccc(O)cc12)C(=O)O [5-hydroxytryptophan]	–	10000 (≈ 45.4 mM)
